What was measured:
Metformin + Luminespib = compound: CN(C)C(=N)NC(=N)N [Metformin] + CCNC(=O)c1noc(-c2cc(C(C)C)c(O)cc2O)c1-c1ccc(CN2CCOCC2)cc1 [Luminespib] (partner 0.01 µM); assay: relative viability (nuclei count vs DMSO), 5 days (fraction); higher = more cells survive
In short: (§1)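 One day after seeding in 1536-well plates, lung cancer cell lines were dosed by pin tool. Dosing was either single-drug or a fixed anchor-drug dose plus five library-drug doses (not always all listed) in √10 steps. After 5 days, nuclei were stained in one fix-and-stain step and counted on 4× images, and relative viability is the nuclei count of treated wells over that of vehicle wells, given as the median of duplicate plates.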

Metformin + Dasatinib = compound: CN(C)C(=N)NC(=N)N [Metformin] + Cc1nc(Nc2ncc(C(=O)Nc3c(C)cccc3Cl)s2)cc(N2CCN(CCO)CC2)n1 [Dasatinib] (partner 0.075 µM); assay: as above
In short: as §1

Cell Line	relative viability (Metformin + Luminespib; first compound 10 µM)	relative viability (Metformin + Luminespib; first compound 31.62 µM)	relative viability (Metformin + Luminespib; first compound 100 µM)	relative viability (Metformin + Luminespib; first compound 316.23 µM)	relative viability (Metformin + Luminespib; first compound 1000 µM)	relative viability (Metformin + Dasatinib; first compound 10 µM)	relative viability (Metformin + Dasatinib; first compound 31.62 µM)	relative viability (Metformin + Dasatinib; first compound 100 µM)	relative viability (Metformin + Dasatinib; first compound 316.23 µM)	relative viability (Metformin + Dasatinib; first compound 1000 µM)
COR-L 105	0.85	0.736	0.749	0.538	0.795	0.452	0.542	0.44	0.33	0.348
HCC-44	1.19	1.07	1.03	0.926	0.748					
PC-3 [JPC-3]	0.686	0.68	0.73	0.663	0.74	0.944	0.889	0.979	0.886	0.986
H3255	0.858	1.01	0.88	0.657	0.867	0.391	0.344	0.232	0.402	0.315
RERF-LC-KJ	1.11	1.15	0.979	0.808	0.864	0.689	0.709	0.613	0.462	0.534
NCI-H2347	0.328	1.03		0.537	0.791	0.336	0.369		0.307	0.354
NCI-H520	0.265	0.224	0.211	0.223	0.23	0.24	0.195	0.265	0.195	0.217
NCI-H1395	0.706	0.697	0.826	0.834	0.773	0.438	0.483	0.493	0.385	0.509
LK-2	0.203	0.17	0.196	0.2	0.191	0.447	0.424	0.381	0.383	0.558
PC-14	0.373	0.18	0.202	0.289	0.502	0.337	0.285	0.253	0.235	0.233
NCI-H2023	0.649	0.725	0.711	0.67	0.676	0.599	0.618	0.703	0.493	0.662
NCI-H838	0.258	0.289	0.291	0.237	0.251	0.271	0.254	0.356	0.241	0.348
EKVX	0.872	0.948	0.809		0.836		0.856	0.598	0.671	0.779
NCI-H1944	0.815	0.902	0.895	0.725	0.804	0.22	0.227	0.252	0.254	0.246
EPLC-272H	0.398	0.335	0.27	0.25	0.413	0.358	0.445	0.462	0.426	0.394
NCI-H1666	1.06	1.11	1.16	1.06	1.16	0.752	0.957	0.79	0.798	0.779
NCI-H322M	0.831	0.884	1.05	0.912	0.826	0.326	0.318	0.31	0.305	0.245
NCI-H1437	1.15	1.16	1.19	1.08	1.12	0.602	0.48	0.359	0.41	0.415

Cell Line	relative viability (Metformin + Luminespib; first compound 10 µM)	relative viability (Metformin + Luminespib; first compound 31.62 µM)	relative viability (Metformin + Luminespib; first compound 100 µM)	relative viability (Metformin + Luminespib; first compound 316.23 µM)	relative viability (Metformin + Luminespib; first compound 1000 µM)	relative viability (Metformin + Dasatinib; first compound 10 µM)	relative viability (Metformin + Dasatinib; first compound 31.62 µM)	relative viability (Metformin + Dasatinib; first compound 100 µM)	relative viability (Metformin + Dasatinib; first compound 316.23 µM)	relative viability (Metformin + Dasatinib; first compound 1000 µM)
NCI-H23	0.207	0.244	0.218	0.272	0.214	0.759	0.876	0.833	0.499	0.802
NCI-H2342	0.687	0.706	0.726	0.731	0.71	0.315	0.291	0.326	0.285	0.356
NCI-H647	0.187	0.154	0.278	0.16	0.113	0.226	0.231	0.567	0.221	0.212
NCI-H2009	1.07	1.09	1.08	1.02	0.93	0.503	0.522	0.483	0.401	0.467
HCC-78						0.405	0.469	0.459	0.549	0.327
LCLC-97TM1	0.75	0.861	0.922	0.7	0.76	0.739	0.734	0.591	0.529	0.725
NCI-H650	0.953	1.03	1.06	0.92	1.09	0.466	0.438	0.339	0.502	0.332
HOP-62	0.77	0.878	0.849	0.85	0.796	0.748	0.664	0.687	0.713	0.655
LC-2-ad		0.858	0.934	0.683	0.647		0.598	0.606	0.372	0.44
NCI-H2126	0.647	0.956	0.803	0.571	0.496	0.548	0.557	0.556	0.372	0.337
NCI-H1975	0.156	0.122	0.363	0.335	0.336	0.558	0.417	0.553	0.418	0.402
NCI-H1734	0.145	0.2	0.206	0.181	0.19	0.413	0.472	0.463	0.47	0.498
NCI-H727	0.566	0.496	0.387		0.477	0.399	0.451	0.478		0.49
LU99A	0.223	0.233	0.238	0.269	0.252	0.415	0.459	0.511	0.516	0.538
LXF-289	0.693	0.683	0.724	0.625	0.621	0.186	0.188	0.188	0.137	0.236
UMC-11	1.1	1.14	1.08	1.1	0.994	0.528	0.482	0.546	0.447	0.45
NCI-H1650	0.189	0.212	0.203	0.218	0.218	0.443	0.456	0.366	0.301	0.369
